Converted amounts (≈) assume the structure as drawn. Read-outs that look alike come from different tables or passages of the source. Where a SMILES comes first, the peptide text is derived from it. The star is where a group is joined. X2 = CCCCN(CCc1c2c(nc3ccccc13)-c1cc3c(c(=O)n1C2)COC(=O)[C@]3(O)CC)*; X4 = CCCN(CCc1c2c(nc3ccccc13)-c1cc3c(c(=O)n1C2)COC(=O)[C@]3(O)CC)*; X5 = CC[C@@]1(O)C(=O)OCc2c1cc1n(c2=O)Cc2c-1nc1ccccc1c2CCN(CC(C)C)*; Propanoyl(3-maleimido) = O=C1C=CC(=O)N1CCC(=O)*; PEG6 = NCCOCCOCCOCCOCCOCCOCCC(=O)O

Data set [1] has as its system sarcoma SJSA-1 tumor model. Put shortly:
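Female BALB/c nude mice (6-8 weeks) bearing subcutaneous right-chest SJSA-1 xenografts from 2×10^7 cells were randomized, three per group, once tumors reached at least 100 mm^3. Treatment given once a week for three weeks starting day 1; saline controls.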

Data set [2] relates to sarcoma SJSA-1 tumor model. In words: Efficacy in animal model of sarcoma SJSA-1, 30 mg/kg once a week for two weeks (Example 40). The data set is classed as in vivo, BALB/c mice. As to conditions: for SJSA-1 (sarcoma tissue) mean tumor volume (mm^3) Day 1 / SJSA-1 (sarcoma tissue) mean tumor volume (mm^3) Day 4 / SJSA-1 (sarcoma tissue) mean tumor volume (mm^3) Day 7 / SJSA-1 (sarcoma tissue) mean tumor volume (mm^3) Day 10 / Mouse weight (%) on Day 14 / SJSA-1 (sarcoma tissue) growth rate (%) on Day 14 / SJSA-1 (sarcoma tissue) mean tumor volume (mm^3) Day 14: 30 mg/kg once a week for two weeks. As for the experimental part: Test objective: To further compare the antitumor efficacy of different polypeptide Linkers in an animal tumor model of sarcoma SJSA-1.
Test drug: Polypeptide conjugate and normal saline control group.
The control group was administered normal saline. Administration was performed once a week for two weeks.

For data set [3], the system named is colo320 (colorectal cancer tissue). The experiment in a line: cells. The data set is classed as cell-based. As to conditions: CCK8, 48 h; Table 6. Put shortly: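 Colo320 cells, 5,000 per well, exposed to drug concentration series for 48 h at 37 °C, 5% CO2 (0.1% DMSO controls). Viability by CCK8, absorbance at 450 nm after about 2 h. Survival rates and IC50 calculated.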

Data set [4] is described as follows: MTD determination in mice (Examples 27, 36, 44). The conditions noted are these: female, mouse, in vivo, mice, monitored for 14 d; for MTD: read-out: MTD. Type of data set: in vivo. The text has this:
Test animals: 6-8 weeks old mice, all female; mice were grouped randomly, with six mice in each group, administered with drugs at different concentration gradients separately and monitored for 14 d. A mouse was euthanized at a loss of 20% of its initial weight and deemed to have died of poisoning.

Data set [5] can be described thus: Tumor homogenate activation efficiency, small cell lung cancer tissue (Example 28). Type of data set: in vitro ADME. The conditions noted are these: pH 5.0, 37° C., 2 h; Table 5. In a few lines: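 Polypeptide conjugate at 1 mg/ml in 50 mM MES, 250 mM NaCl, pH 5.0 incubated with 100 μg small cell lung cancer tissue homogenate at 37° C. for 2 h. HPLC quantified Belotecan release as Belotecan peak area over total area of Belotecan plus all Belotecan-containing compounds.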

Where [6] appears, read: 15 mg/kg once a week for three weeks, Table 7.
The mark [7] stands for this setting: 45 mg/kg once a week for three weeks, Table 7.
[8] abbreviates: 15 mg/kg once a week for three weeks, Table 2.
Where [9] appears, read: 45 mg/kg once a week for three weeks, Table 2.

With `CC[C@@]1(O)C(=O)OCc2c1cc1n(c2=O)Cc2c-1nc1ccccc1c2CCN(CC(C)C)C(=O)[C@H](CC(C)C)NC(=O)[C@H](CC(N)=O)NC(=O)[C@H](C)NC(=O)[C@H](C)NC(=O)CCOCCOCCOCCOCCOCCOCCNC(=O)CCN1C(=O)C=CC1=O` [MI-6PEG-AANL-D5] ({Propanoyl(3-maleimido)-PEG6}-AANL-X5), in data set [1] (setting [6]), the “Mouse weight (%)” value is given as “+18%”, the “SJSA-1 (sarcoma tissue) growth rate (%)” value is listed as 1069.02% and the “SJSA-1 (sarcoma tissue) mean tumor volume (mm^3)” value is 1304.2 mm^3. Further, in data set [1] (setting [7]), the “Mouse weight (%)” value is given as “+17%”, the “SJSA-1 (sarcoma tissue) growth rate (%)” value is given as 933.13% and the “SJSA-1 (sarcoma tissue) mean tumor volume (mm^3)” value is reported as 1165.2 mm^3. Further, in data set [2], the “SJSA-1 (sarcoma tissue) mean tumor volume (mm^3) Day 1” value worked out at 139.89 mm^3, the “SJSA-1 (sarcoma tissue) mean tumor volume (mm^3) Day 4” value came to 429.56 mm^3, the “SJSA-1 (sarcoma tissue) mean tumor volume (mm^3) Day 7” value is reported as 658.17 mm^3 and the “SJSA-1 (sarcoma tissue) mean tumor volume (mm^3) Day 10” value came out at 876.45 mm^3. Also, in data set [2], the “Mouse weight (%) on Day 14” value is listed as −1.1%, the “SJSA-1 (sarcoma tissue) growth rate (%) on Day 14” value is 979.44% and the “SJSA-1 (sarcoma tissue) mean tumor volume (mm^3) Day 14” value is 1370.14 mm^3. The “IC50 Colorectal cancer tissue (colo320)” value in data set [3] worked out at 2.42 µg/mL (≈ 1.86 µM).

For the compound `CC[C@@]1(O)C(=O)OCC2=C1C=C1c3nc4ccccc4c(CCN(C(=O)OCc4ccc(NC(=O)[C@H](CC(N)=O)NC(=O)[C@H](C)NC(=O)[C@H](C)NC(=O)CCOCCOCCOCCOCCOCCOCCNC(=O)CCN5C(=O)C=CC5=O)cc4)C(C)C)c3CN1C2` [MI-6PEG-AAN-PAB-Belotecan], in data set [1] (setting [8]), the “Mouse weight (%)” value is recorded as “+6%”, the “SJSA-1 (sarcoma tissue) mean tumor volume (mm^3)” value stood at 1357 mm^3 and the “SJSA-1 (sarcoma) Growth rate (%)” value turned out to be 1174.19%. Also, in data set [1] (setting [9]), the “Mouse weight (%)” value was −5%, the “SJSA-1 (sarcoma tissue) mean tumor volume (mm^3)” value is 873.5 mm^3 and the “SJSA-1 (sarcoma) Growth rate (%)” value was 753.02%. Moreover, in data set [2], the “SJSA-1 (sarcoma tissue) mean tumor volume (mm^3) Day 1” value turned out to be 131.25 mm^3, the “SJSA-1 (sarcoma tissue) mean tumor volume (mm^3) Day 4” value is 208.13 mm^3, the “SJSA-1 (sarcoma tissue) mean tumor volume (mm^3) Day 7” value stood at 554.02 mm^3 and the “SJSA-1 (sarcoma tissue) mean tumor volume (mm^3) Day 10” value stood at 706.21 mm^3. Further, in data set [2], the “Mouse weight (%) on Day 14” value is listed as −6.9%, the “SJSA-1 (sarcoma tissue) growth rate (%) on Day 14” value came out at 1005.49% and the “SJSA-1 (sarcoma tissue) mean tumor volume (mm^3) Day 14” value is given as 1319.7 mm^3. Besides, the “tumor suppression effect (in words)” value in data set [2] (30 mg/kg, SJSA-1 model, Example 40) is “neither MI-6PEG-AAGP-D2 nor MI-6PEG-AAN-PAB-Belotecan had a satisfactory tumor suppression effect”. For the same compound, in data set [4] (Table 15 (Example 44), six per group), the MTD was 100 mg/kg. Further, in data set [4] (Table 4), the MTD is 100 mg/kg. In data set [5], the “Percentage of release efficiency (%) Small cell lung cancer tissue (NCI-H841)” value is 61.5%.

As to `CCCCN(CCc1c2c(nc3ccccc13)-c1cc3c(c(=O)n1C2)COC(=O)[C@]3(O)CC)C(=O)[C@H](CC(C)C)NC(=O)[C@H](CC(N)=O)NC(=O)[C@H](C)NC(=O)[C@H](C)NC(=O)CCOCCOCCOCCOCCOCCOCCNC(=O)CCN1C(=O)C=CC1=O` [MI-6PEG-AANL-D4] ({Propanoyl(3-maleimido)-PEG6}-AANL-X2), in data set [1] (setting [6]), the “Mouse weight (%)” value was “+19%”, the “SJSA-1 (sarcoma tissue) growth rate (%)” value turned out to be 1031.84% and the “SJSA-1 (sarcoma tissue) mean tumor volume (mm^3)” value was 1289.8 mm^3. Further, in data set [1] (setting [7]), the “Mouse weight (%)” value is on record as “+19%”, the “SJSA-1 (sarcoma tissue) growth rate (%)” value is listed as 924.41% and the “SJSA-1 (sarcoma tissue) mean tumor volume (mm^3)” value was 1149.5 mm^3. In addition, in data set [2], the “SJSA-1 (sarcoma tissue) mean tumor volume (mm^3) Day 1” value came out at 142.01 mm^3, the “SJSA-1 (sarcoma tissue) mean tumor volume (mm^3) Day 4” value is on record as 486.37 mm^3, the “SJSA-1 (sarcoma tissue) mean tumor volume (mm^3) Day 7” value was 739.25 mm^3 and the “SJSA-1 (sarcoma tissue) mean tumor volume (mm^3) Day 10” value is given as 1068.21 mm^3. In data set [2], the “Mouse weight (%) on Day 14” value is given as “+2.3%”, the “SJSA-1 (sarcoma tissue) growth rate (%) on Day 14” value is on record as 1137.43% and the “SJSA-1 (sarcoma tissue) mean tumor volume (mm^3) Day 14” value came out at 1615.26 mm^3. In data set [3], the “IC50 Colorectal cancer tissue (colo320)” value turned out to be 5.40 µg/mL (≈ 4.14 µM).

Consider `CCCN(CCc1c2c(nc3ccccc13)-c1cc3c(c(=O)n1C2)COC(=O)[C@]3(O)CC)C(=O)[C@H](CC(C)C)NC(=O)[C@H](CC(N)=O)NC(=O)[C@H](C)NC(=O)[C@H](C)NC(=O)CCOCCOCCOCCOCCOCCOCCNC(=O)CCN1C(=O)C=CC1=O` [MI-6PEG-AANL-D3] ({Propanoyl(3-maleimido)-PEG6}-AANL-X4), for which, in data set [1] (setting [6]), the “Mouse weight (%)” value is “+21%”, the “SJSA-1 (sarcoma tissue) growth rate (%)” value is 1207.54% and the “SJSA-1 (sarcoma tissue) mean tumor volume (mm^3)” value came to 1521.5 mm^3. For the same compound, in data set [1] (setting [7]), the “Mouse weight (%)” value is “+16%”, the “SJSA-1 (sarcoma tissue) growth rate (%)” value was found to be 941.15% and the “SJSA-1 (sarcoma tissue) mean tumor volume (mm^3)” value is reported as 1205.8 mm^3. Moreover, in data set [2], the “SJSA-1 (sarcoma tissue) mean tumor volume (mm^3) Day 1” value came to 137.17 mm^3, the “SJSA-1 (sarcoma tissue) mean tumor volume (mm^3) Day 4” value is 436.65 mm^3, the “SJSA-1 (sarcoma tissue) mean tumor volume (mm^3) Day 7” value is reported as 735.18 mm^3 and the “SJSA-1 (sarcoma tissue) mean tumor volume (mm^3) Day 10” value was determined as 1111.34 mm^3. Moreover, in data set [2], the “Mouse weight (%) on Day 14” value is “+4.2%”, the “SJSA-1 (sarcoma tissue) growth rate (%) on Day 14” value was 1316.37% and the “SJSA-1 (sarcoma tissue) mean tumor volume (mm^3) Day 14” value was 1805.67 mm^3. Also, in data set [3], the “IC50 Colorectal cancer tissue (colo320)” value worked out at 3.28 µg/mL (≈ 2.54 µM). This compound also came in with an MTD at 14 d in data set [4] (Table 9) of 200 mg/kg.

These data come from patent US20250235545A1, “POLYPEPTIDE CONJUGATE AND USE THEREOF” (SHANGHAI CHIXI BIOMEDICAL TECHNOLOGY CO., LTD, priority 2024, published 2025).
